# Measured values as given in patent US10450570B2, “Compositions and methods for controlling vasculature” (YALE UNIVERSITY, priority 2016, dated 2019).
# Legend:
# HDLECs [1] = assay: Glycolytic flux measurement (5-3H-glucose); assay type: cell-based, human
# Procedure: (§1) Glycolysis was measured as previously described. Briefly, subconfluent HDLECs cultured in 12-well plates were incubated with 1 ml/well EBM2 medium (containing appropriate amount of serum and supplement) with 80 μCi/mmol 5-^3H-glucose (Perkin Elmer) for 2-3 hr. Then 0.8 ml/well medium was transferred into glass vials with hanging wells and filter papers soaked with H2O. After incubation in a cell culture incubator for at least 2 days to reach saturation, filter papers were taken out and the amount of evaporated ^3H2O was measured in a scintillation counter. Glucose oxidation, glutamine oxidation and fatty acid oxidation were measured essentially as reported. For measurement of glucose uptake, HDLECs were incubated with 2-[1-^14C]-deoxy-D-glucose (2.5 μCi/ml, Perkin Elmer) for 10 min. before PBS washing (at least 3 times to get rid of all radioactive medium) and then lysis with 500 μL 0.1 N NaOH. 400 μl NaOH cell lysate for each sample was transferred to scintillation vials containing scintillation liquid and measured.
# zebrafish = assay: Lymphatic development in zebrafish embryos; assay type: in vivo; conditions: 0.25 μM, 53 hpf Tg (fli1a:EGFP) embryos, vs DMSO
# [2] = system: HK2 and other glycolytic enzymes in HDLECs; assay: Western blot of glycolytic enzyme expression in HDLECs; assay type: cell-based, human; conditions: protein
# Procedure: (§2) Human dermal lymphatic endothelial cells (HDLECs, HMVEC-dLyNeo-Der Lym Endo EGM-2MV) and Pooled human umbilical vein endothelial cells (HUVECs) were purchased from Lonza and cultured in EBM2 basal medium with EGM-2 MV BulletKit. Both cell types were tested negative for mycoplasma in Lonza. Culture medium was changed every the other day. Tissue culture plates were coated with 0.1% gelatin (Sigma) for 30 min at 37° C. and washed with Dulbecco's Phosphate-Buffered Saline (Life Technologies) before cell plating. For siRNA-mediated gene knockdown, FGFR1 siRNA (ON-TARGETplus human FGFR1 siRNA, Dharmacon; Hs_FGFR1_6, Qiagen), FGFR3 siRNA (Hs_FGFR3_6, Qiagen), HK2 siRNA (s6562 human HK2 siRNA, Life Technologies), c-Myc siRNA (ON-TARGETplus human Myc siRNA, Dharmacon), AllStar negative control siRNA (Qiagen), and ON-TARGETplus Non-targeting pool (Dharmacon) were transfected by lipofectamine RNAimax reagent (Life Technologies). Human FGF2 was provided by Kaken Pharmaceutical Co, Ltd (Japan) and ordered from Peprotech. Human VEGFC, VEGFD, IGF1, IGF2 and PDGFBB were purchased from Peprotech. To assay the effect of FGFR1 knockdown on glycolytic enzyme expression, HDLECs, transfected with control or FGFR1 siRNA 3 days in advance, were replated and collected for protein analysis 24 hr later when the cell confluency reached ˜80%. […] ImageJ was used for densitometry quantification of western blot bands.
# Myc expression in HUVECs = assay: Western blot of Myc expression in HUVECs; assay type: cell-based, human
# Procedure: as §2
# [3] = system: Myc binding to the HK2 E-boxes in HDLECs; assay: ChIP-qPCR of Myc binding to the HK2 gene; assay type: cell-based, human
# Procedure: ChIP assays were performed using SimpleChIP® Plus Enzymatic Chromatin IP Kit (Cell Signaling) according to manufacturer's protocol with some minor modifications. Basically cells cultured on 20-cm dishes were fixed for 10 min by adding 37% formaldehyde solution to the culture medium to a final concentration of 1%. Fixation was quenched with glycine for 5 min at room temperature. Cells were washed twice with ice-cold PBS, scraped into 2 ml PBS, and centrifuged at 5,000 rpm for 10 min. The cell pellets from two 20-cm dishes were combined and lysed in 1 ml lysis buffer. The lysate was then centrifuged at 5,000 rpm for 5 min at 4° C. and the pellet was resuspended in 100 μl nuclease digestion buffer. The DNA was digested with 0.5 μl of Micrococcal Nuclease for 20 min at 37° C. to a length of approximately 150-900 bp (checked by agarose gel electrophoresis). Lysates were centrifuged and the pellet was resuspended in 500 μl ChIP buffer and sonicated for 3×30 s at power level 2 and 40% constancy. […] The amount of precipitated DNA from each sample was quantified by qPCR using primers flanking the Myc binding element in the HK2 gene. The reading was normalized to that of DNA purified from the previously saved cross-linked chromatin (2% input). The reading by DNA from IP using Myc antibody against that from IgG IP indicated the antibody efficiency for ChIP assay. […]
# Myc expression in HDLECs = assay: Western blot of Myc expression in HDLECs; assay type: cell-based, human
# Procedure: as §2
# mouse cornea = assay: Corneal lymphangiogenesis model; assay type: in vivo; conditions: FGF2-containing pellets implanted, 1 week
# Procedure: Slow-releasing pellets containing FGF2 were made as previously described (Tang, Z. et al. JoVE, (2011)). Surgery to implant the pellets into the mouse cornea was performed as reported (Cao, R. et al. Nature protocols 6, 817-826, (2011)). Adult Prox1-CreER^T2(KI); HK2^flox/flox and control mice were i.p. injected with tamoxifen (150 μg/g body weight) every the other day (seven injections total) before the cornea surgery. 1 week after the pellet implantation, eyeballs were harvested for cornea dissection and immunostaining with LYVE1 (Angiobio, #11-034) and PECAM1 (BD Pharmigen, #553370) antibodies and then used for imaging (spinning disk confocal microscopy) and quantification analysis (ImageJ).
# [4] = system: HK2 and other glycolytic enzymes in HUVECs; assay: Western blot of glycolytic enzyme expression in HUVECs; assay type: cell-based, human
# Procedure: as §2
# HDLECs [5] = assay: Glucose uptake measurement (2-[1-14C]-deoxy-D-glucose); assay type: cell-based, human
# Procedure: as §1
# HDLECs [6] = assay: Mass spectrometry of glycolytic metabolites and ATP; assay type: cell-based, human
# Procedure: HDLECs were quenched by a rapid wash with ice-cold PBS and then collected in 150 μl of an ice-cold solution containing 20% methanol, 0.1% formic acid, 1 mM phenylalanine, 3 mM NaF and 100 μM EDTA. ^2H4-Taurine (10 μM, CDN Isotopes) was used as a loading control. All the samples were lyophilized and resuspended in 50 μL of water prior the LC-MS/MS analysis. Samples were injected onto a Cogent Diamond Hydride™ column (2.2 μm particle size, 2.1 mm×10 cm) at a flow rate of 0.5 mL/min. Glycolytic intermediates were eluted isocratically with a 95% aqueous/5% organic solvent mixture. The aqueous solution contained 15 mM ammonium formate. The organic solution contained 60% acetonitrile, 35% isopropyl alcohol and 15 mM ammonium formate. Samples were ionized by electrospray into an ABSCIEX 5500 QTRAP equipped with a SelexION for differential mobility separation (DMS) and acquired using multiple reaction monitoring (MRM) in negative mode, as described previously. DMS-based separation of fructose-6-phosphate from glucose-6-phosphate, as well as the separation of ATP, ADP and AMP nucleotides, was achieved using no modifier. Isopropyl alcohol was used as modifier for the DMS-based separation of the remaining glycolytic intermediates. […]
# HDLECs [7] = assay: Three-dimensional bead sprouting assay; assay type: cell-based, human; conditions: control siRNA HDLEC-coated beads
# Procedure: HDLECs were trypsinized and mixed with collagen-coated Cytodex® microcarrier beads (Sigma) in a ratio of 2500 beads to 1×10^6 cells in warm EGM-2 medium in a 15 ml falcon tube. The mixture was incubated at 37° C. for 4 hr., with shaking every 20 min. to ensure even coating of the beads. After 4 hr., the coated beads were transferred to a 6-well plate in 2 ml of EGM-2 medium per well and incubated at 37° C. overnight. The next day, coated beads were embedded into a fibrinogen gel. For each well of a 24-well plate, 300 μl of 3 mg/mL fibrinogen in PBS was used, along with 100 μg/ml of aprotinin (Sigma) and 1.5 unit/ml of thrombin (Sigma). Approximately 250 coated beads were embedded in each well. The plate was then incubated at 37° C. for one hr. to generate a clot. After the gel solidified, human lung fibroblasts in EGM-2 medium were seeded on top at a concentration of 20,000 cells/well. The medium was changed every other day (full EGM-2 medium with 200 ng/mL of FGF2), and the plates were imaged on day 6 using a spinning disk confocal microscope (Perkin Elmer). ImageJ was used to measure the sprout length for the data analysis.
# HUVECs = assay: Glycolytic flux measurement in HUVECs; assay type: cell-based, human
# orthotopic Panc02 tumors = assay: Murine orthotopic pancreatic tumor model, peritumoral lymphatics (LYVE1); assay type: in vivo, mouse; conditions: oral, 30 mg/kg/day, compared to vehicle controls
# Procedure: The murine pancreatic tumor cell line Panc02 was obtained from Prof. Wiedenmann (Charité University Hospital, Berlin). 1×10^6 tumor cells were injected subcapsularly in the head region of the pancreas of anaesthetized female C57Bl/6 mice (7-9 weeks old, Charles River, France) using a 30-gauge needle. At day 3 after tumor inoculation, tumor-bearing mice were treated daily with SSR (30 mg/kg/day) or vehicle (0.6% methylcellulose) via oral gavage. At day 9, primary tumors were removed, weighted, and tumor volumes (V) were calculated using the formula V=0.52×(a^2×b), where a represents the smallest tumour diameter and b represents the largest tumour diameter. The incidence of tumor invasion into adjacent organs, hemorrhagic ascites, and regional celiac and mesenteric lymph node metastases were recorded, and confirmed by immunohistochemistry on paraffin sections. Paraffin-embedded […] sections were prepared and used for immunohistochemistry using the following antibodies: anti-LYVE1 (Upstate-Cell Signaling Solutions, Bio-connect, Huissen, The Netherlands) and anti-VEGFR3 (eBiosciences). The lymph vessel area in the peritumoral area was analysed using the KS300 software (Zeiss).
molecule,measurement,setting,value
"IGF2: insulin-like growth factor 2, purchased from Peprotech",glycolytic flux,HDLECs [1],reduced flux
Cc1c[nH]c(/C=C2\C(=O)Nc3ccccc32)c1CCC(=O)O [SU5402],lymphatic development in zebrafish (parachordal line length),zebrafish,impairs lymphatic development in zebrafish
FGF2: Human FGF2 provided by Kaken Pharmaceutical and ordered from Peprotech,glycolytic enzyme (HK2) expression,[2],"robust increase in HK2 expression, with minimal changes of other enzymes' expression"
same,Myc expression in HUVECs,Myc expression in HUVECs,increased Myc expression
same,amount of Myc binding to the HK2 E-boxes,[3],increased by FGF2 treatment
same,Myc protein expression,Myc expression in HDLECs,increased Myc protein expression
same,lymphangiogenesis in the mouse cornea,mouse cornea,induced robust stimulation of lymphangiogenesis
same,HK2 protein expression in HUVECs,[4],selectively induced HK2 expression albeit to a lesser extent than in LECs
same,glucose uptake,HDLECs [5],significantly increased glucose uptake
same,ATP production,HDLECs [6],increased
same,steady-state levels of glycolytic metabolites and lactate,HDLECs [6],all increased by FGF2 stimulation
same,sprouting response,HDLECs [7],induced a strong sprouting response
same,glycolysis in HUVECs,HUVECs,enhanced glycolysis
same,glycolytic flux,HDLECs [1],doubled
"IGF1: insulin-like growth factor 1, purchased from Peprotech",glycolytic flux,HDLECs [1],no effect
COc1c(C)c(C(=O)c2ccc(N)c(C(=O)[O-])c2)n2ccccc12.[Na+] [SSR128129E],lymphatic vasculature in the peri-tumoral area (LYVE1),orthotopic Panc02 tumors,significant reduction of the lymphatic vasculature in the peri-tumoral area
